PubChem BioAssay (NCI)
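Briefly, cells in 96-well plates were exposed to five compound concentrations for 48 h, and endpoints were estimated by linear interpolation. Definition used: TGI = concentration required for complete inhibition of growth.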

What was measured:
Test in all cases: NCI tumour cell line growth inhibition, 48 h
K-562 leukemia = tested on: K-562 leukemia
HS 578T breast = tested on: HS 578T breast
EKVX NSCLC = tested on: EKVX NSCLC
HCT-15 colon = tested on: HCT-15 colon
786-0 renal = tested on: 786-0 renal
RXF 393 renal = tested on: RXF 393 renal
SF-539 CNS = tested on: SF-539 CNS
BT-549 breast = tested on: BT-549 breast
MDA-N = tested on: MDA-N
PC-3 prostate = tested on: PC-3 prostate
OVCAR-5 ovarian = tested on: OVCAR-5 ovarian
MCF7 breast = tested on: MCF7 breast
NCI-H23 lung = tested on: NCI-H23 lung
SNB-19 CNS = tested on: SNB-19 CNS
NCI/ADR-RES ovarian = tested on: NCI/ADR-RES ovarian
TK-10 renal = tested on: TK-10 renal
HOP-62 NSCLC = tested on: HOP-62 NSCLC
NCI-H226 lung = tested on: NCI-H226 lung
OVCAR-4 ovarian = tested on: OVCAR-4 ovarian
OVCAR-8 ovarian = tested on: OVCAR-8 ovarian
ACHN renal = tested on: ACHN renal
HOP-92 NSCLC = tested on: HOP-92 NSCLC
SW-620 colon = tested on: SW-620 colon
SK-MEL-2 melanoma = tested on: SK-MEL-2 melanoma
A549 NSCLC = tested on: A549 NSCLC
U251 CNS = tested on: U251 CNS
CCRF-CEM leukemia = tested on: CCRF-CEM leukemia
SK-MEL-5 melanoma = tested on: SK-MEL-5 melanoma
MDA-MB-435 = tested on: MDA-MB-435
UO-31 renal = tested on: UO-31 renal
SK-OV-3 ovarian = tested on: SK-OV-3 ovarian
SK-MEL-28 melanoma = tested on: SK-MEL-28 melanoma
OVCAR-3 ovarian = tested on: OVCAR-3 ovarian
LOX IMVI melanoma = tested on: LOX IMVI melanoma
MALME-3M melanoma = tested on: MALME-3M melanoma
UACC-257 melanoma = tested on: UACC-257 melanoma
NCI-H460 lung = tested on: NCI-H460 lung
CAKI-1 renal = tested on: CAKI-1 renal
HT29 colon = tested on: HT29 colon
SF-295 CNS = tested on: SF-295 CNS
COLO 205 colon = tested on: COLO 205 colon
A498 renal = tested on: A498 renal
NCI-H522 lung = tested on: NCI-H522 lung
MOLT-4 leukemia = tested on: MOLT-4 leukemia
IGROV1 ovarian = tested on: IGROV1 ovarian
SNB-75 CNS = tested on: SNB-75 CNS
SN12C renal = tested on: SN12C renal
T-47D breast = tested on: T-47D breast
RPMI-8226 leukemia = tested on: RPMI-8226 leukemia
HCT-116 colon = tested on: HCT-116 colon
HL-60(TB) leukemia = tested on: HL-60(TB) leukemia
M14 melanoma = tested on: M14 melanoma
DU-145 prostate = tested on: DU-145 prostate
KM12 colon = tested on: KM12 colon
MDA-MB-231 breast = tested on: MDA-MB-231 breast
HCC-2998 colon = tested on: HCC-2998 colon
SF-268 CNS = tested on: SF-268 CNS
UACC-62 melanoma = tested on: UACC-62 melanoma
SR leukemia = tested on: SR leukemia

c1ccc(/N=N/Nc2ccc(-c3nc4ccccc4[nH]3)cc2)nc1
TGI (K-562 leukemia): 31.8 µM | TGI (HS 578T breast): 43 µM | TGI (EKVX NSCLC): 52.8 µM | TGI (HCT-15 colon): 69.9 µM | TGI (786-0 renal): 27.5 µM | TGI (RXF 393 renal): 32.5 µM | TGI (SF-539 CNS): 31.3 µM | TGI (BT-549 breast): > 100 µM | TGI (MDA-N): 34.7 µM | TGI (PC-3 prostate): 47.2 µM | TGI (OVCAR-5 ovarian): 84.1 µM | TGI (MCF7 breast): 23.4 µM | TGI (NCI-H23 lung): 95.8 µM | TGI (SNB-19 CNS): 44 µM | TGI (NCI/ADR-RES ovarian): > 100 µM | TGI (TK-10 renal): 35.6 µM | TGI (HOP-62 NSCLC): 30.2 µM | TGI (NCI-H226 lung): 65.4 µM | TGI (OVCAR-4 ovarian): 35.8 µM | TGI (OVCAR-8 ovarian): 47.2 µM | TGI (ACHN renal): 34.2 µM | TGI (HOP-92 NSCLC): 40.5 µM | TGI (SW-620 colon): 71.5 µM | TGI (SK-MEL-2 melanoma): 62.5 µM | TGI (A549 NSCLC): 36.4 µM | TGI (U251 CNS): 30.1 µM | TGI (CCRF-CEM leukemia): 9.79 µM | TGI (SK-MEL-5 melanoma): > 100 µM | TGI (MDA-MB-435): 45.7 µM | TGI (UO-31 renal): 49.3 µM | TGI (SK-OV-3 ovarian): 27.9 µM | TGI (SK-MEL-28 melanoma): 38.7 µM | TGI (OVCAR-3 ovarian): 28.2 µM | TGI (LOX IMVI melanoma): 43.7 µM | TGI (MALME-3M melanoma): 29.2 µM | TGI (UACC-257 melanoma): 62.6 µM | TGI (NCI-H460 lung): 31.6 µM | TGI (CAKI-1 renal): 61.3 µM | TGI (HT29 colon): 45.2 µM | TGI (SF-295 CNS): 35.9 µM | TGI (COLO 205 colon): > 100 µM | TGI (A498 renal): > 100 µM | TGI (NCI-H522 lung): 33.9 µM | TGI (MOLT-4 leukemia): 25.4 µM | TGI (IGROV1 ovarian): 28 µM | TGI (SNB-75 CNS): 40.5 µM | TGI (SN12C renal): 35.8 µM | TGI (T-47D breast): 26 µM | TGI (RPMI-8226 leukemia): 11.6 µM | TGI (HCT-116 colon): 19.7 µM | TGI (HL-60(TB) leukemia): > 100 µM | TGI (M14 melanoma): > 100 µM | TGI (DU-145 prostate): 27.7 µM | TGI (KM12 colon): 30.7 µM | TGI (MDA-MB-231 breast): 25.1 µM

CC(C)(C)C(=O)C(C(c1ccccc1)N1CCOCC1)N1CCOCC1 (configuration not stated)
TGI (K-562 leukemia): > 100 µM | TGI (HS 578T breast): > 100 µM | TGI (HCC-2998 colon): > 100 µM | TGI (EKVX NSCLC): > 100 µM | TGI (HCT-15 colon): > 100 µM | TGI (786-0 renal): > 100 µM | TGI (RXF 393 renal): > 100 µM | TGI (BT-549 breast): > 100 µM | TGI (MDA-N): > 100 µM | TGI (PC-3 prostate): > 100 µM | TGI (OVCAR-5 ovarian): > 100 µM | TGI (NCI-H23 lung): > 100 µM | TGI (SNB-19 CNS): > 100 µM | TGI (NCI/ADR-RES ovarian): > 100 µM | TGI (TK-10 renal): > 100 µM | TGI (HOP-62 NSCLC): > 100 µM | TGI (OVCAR-4 ovarian): > 100 µM | TGI (OVCAR-8 ovarian): > 100 µM | TGI (ACHN renal): > 100 µM | TGI (SF-268 CNS): > 100 µM | TGI (HOP-92 NSCLC): > 100 µM | TGI (SW-620 colon): > 100 µM | TGI (SK-MEL-2 melanoma): > 100 µM | TGI (A549 NSCLC): > 100 µM | TGI (U251 CNS): > 100 µM | TGI (CCRF-CEM leukemia): > 100 µM | TGI (MDA-MB-435): > 100 µM | TGI (UO-31 renal): > 100 µM | TGI (SK-MEL-28 melanoma): > 100 µM | TGI (OVCAR-3 ovarian): > 100 µM | TGI (LOX IMVI melanoma): > 100 µM | TGI (MALME-3M melanoma): > 100 µM | TGI (UACC-257 melanoma): > 100 µM | TGI (NCI-H460 lung): > 100 µM | TGI (CAKI-1 renal): > 100 µM | TGI (HT29 colon): > 100 µM | TGI (SF-295 CNS): > 100 µM | TGI (UACC-62 melanoma): > 100 µM | TGI (A498 renal): > 100 µM | TGI (NCI-H522 lung): > 100 µM | TGI (MOLT-4 leukemia): > 100 µM | TGI (IGROV1 ovarian): > 100 µM | TGI (SR leukemia): > 100 µM | TGI (SNB-75 CNS): > 100 µM | TGI (SN12C renal): > 100 µM | TGI (T-47D breast): > 100 µM | TGI (RPMI-8226 leukemia): > 100 µM | TGI (HCT-116 colon): > 100 µM | TGI (M14 melanoma): > 100 µM | TGI (DU-145 prostate): > 100 µM | TGI (KM12 colon): > 100 µM | TGI (MDA-MB-231 breast): > 100 µM
